In patent US12692261B2, “Substituted heterocyclic compounds and therapeutic uses thereof” (Bayer Aktiengesellschaft, priority 2020, dated 2026):

Columns and labels:
full-length human CSNK1D = molecular target: T1, full-length human CSNK1D (Homo sapiens, UniProt P48730); assay: CSNK1D Assay (ADP-Glo, 1 μM ATP); format: biochemical; conditions: Table 3, read-out: CSNK1D IC50 [mol/l] (median)
T1 construct: N-terminal Glutathion-S-Transferase (GST) and full-length human CSNK1D; purchased Life Technologies PV3665; host or cells: baculovirus infected insect cells
Summary of the method: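 Enzyme is N-terminal GST-tagged full-length human CSNK1D from baculovirus-infected insect cells (typically about 0.5 ng/μL), with a biotinylated peptide substrate and 1 μM ATP. Compound pre-incubated 15 min at 22° C in HEPES pH 7.5 buffer; ADP formed is read by ADP-Glo luminescence.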

[1] = molecular target: T2, full-length human CSNK1A1 (Homo sapiens, UniProt P48729); assay: CSNK1A1 High ATP Assay (ADP-Glo, 1 mM ATP); format: biochemical; conditions: Table 3, read-out: CSNK1A1 high ATP assay IC50 [mol/l] (median);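 also: 30 min kinase reaction at 22 °C with 100 µM peptide substrate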
T2 construct: N-terminal Glutathion-S-Transferase (GST) and full-length human CSNK1A1; purchased Life Technologies PV4174; host or cells: baculovirus infected insect cells
Summary of the method: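 GST-tagged full-length human CSNK1A1 from baculovirus-infected insect cells (typically about 0.4 ng/μL), pre-incubated with compound 15 min at 22 °C. Reaction with biotinylated peptide biotin-Ahx-KRRRAL-pS-VASLPGL at 1 mM ATP. ADP formed read by ADP-Glo luminescence.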

T1 sequence (P48730 whole entry): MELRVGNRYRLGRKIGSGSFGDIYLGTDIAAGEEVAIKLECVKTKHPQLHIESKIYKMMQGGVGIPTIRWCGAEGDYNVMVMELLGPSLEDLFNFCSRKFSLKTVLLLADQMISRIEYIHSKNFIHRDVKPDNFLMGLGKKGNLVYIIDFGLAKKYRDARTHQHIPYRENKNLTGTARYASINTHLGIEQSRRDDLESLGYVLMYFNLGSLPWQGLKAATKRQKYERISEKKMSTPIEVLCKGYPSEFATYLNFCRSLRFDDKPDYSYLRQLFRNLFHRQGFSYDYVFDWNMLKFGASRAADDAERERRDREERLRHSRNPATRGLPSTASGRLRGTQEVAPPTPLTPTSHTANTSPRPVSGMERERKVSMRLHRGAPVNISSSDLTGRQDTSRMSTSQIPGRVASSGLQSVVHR
T2 sequence (P48729 whole entry): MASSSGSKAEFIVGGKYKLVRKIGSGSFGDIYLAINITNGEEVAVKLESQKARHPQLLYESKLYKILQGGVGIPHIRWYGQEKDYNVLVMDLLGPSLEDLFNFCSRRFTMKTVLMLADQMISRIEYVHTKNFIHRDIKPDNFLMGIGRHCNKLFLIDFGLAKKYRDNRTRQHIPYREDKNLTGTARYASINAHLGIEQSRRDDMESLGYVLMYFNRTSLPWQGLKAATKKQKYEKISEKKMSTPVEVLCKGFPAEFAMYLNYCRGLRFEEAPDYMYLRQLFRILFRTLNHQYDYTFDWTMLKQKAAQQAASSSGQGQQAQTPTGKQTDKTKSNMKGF

| SMILES | IC50 (full-length human CSNK1D) | IC50 [1] |
| --- | --- | --- |
| O=C(Nc1cc(-c2[nH]c3c(O[C@H]4CCOC4)ncnc3c2-c2ccccn2)ccn1)C(CC(F)F)c1ccc(F)cc1 (single isomer, unassigned) [Example 73, (2R or S)-4,4-difluoro-2-(4-fluorophenyl)-N-{4-[4-{[(3S)-oxolan-3-yl]oxy}-7-(pyridin-2-yl)-5H-pyrrolo[3,2-d]pyrimidin-6-yl]pyridin-2-yl}butanamide] | 4.02 nM | 4.16 nM |
| O=C(Nc1cc(-c2[nH]c3cc(F)cnc3c2-c2ccccn2)ccn1)C(CO)c1ccc(F)cc1 (racemic) [Example 71, (2RS)—N-(4-(6-fluoro-3-(pyridin-2-yl)-1H-pyrrolo[3,2-b]pyridin-2-yl)pyridin-2-yl)-2-(4-fluorophenyl)-3-hydroxypropanamide] | 12.8 nM | 8.21 nM |
| O=C(Nc1cc(-c2[nH]c3c(OC[C@H]4COCCO4)cc(F)nc3c2-c2ccccn2)ccn1)C(CC(F)F)c1ccc(F)cc1 (single isomer, unassigned) [Example 51, (2R or S)—N-{4-[7-{[(2R)-1,4-dioxan-2-yl]methoxy}-5-fluoro-3-(pyridin-2-yl)-1H-pyrrolo[3,2-b]pyridin-2-yl]pyridin-2-yl}-4,4-difluoro-2-(4-fluorophenyl)butanamide] | 4.1 nM | 4.65 nM |
| Cc1ccnc2c(-c3ccccn3)c(-c3ccnc(NC(=O)C(CC(F)F)c4ccc(F)cc4)c3)[nH]c12 (stereo not drawn) [Example 84, 4,4-difluoro-2-(4-fluorophenyl)-N-{4-[7-methyl-3-(pyridin-2-yl)-1H-pyrrolo[3,2-b]pyridin-2-yl]pyridin-2-yl}butanamide] | 7.35 nM | 4.77 nM |
| O=C(Nc1cc(-c2[nH]c3c(O[C@H]4CCOC4)ncnc3c2-c2ccccn2)ccn1)C(CC(F)F)c1ccc(F)cc1 (mixture of isomers) [Example 72, (2RS)-4,4-difluoro-2-(4-fluorophenyl)-N-{4-[4-{[(3S)-oxolan-3-yl]oxy}-7-(pyridin-2-yl)-5H-pyrrolo[3,2-d]pyrimidin-6-yl]pyridin-2-yl}butanamide] | 7.3 nM | 7.1 nM |
| O=C(Nc1cc(-c2[nH]c3c(OC[C@@H]4COCCO4)cc(F)nc3c2-c2ccccn2)ccn1)C(CC(F)F)c1ccc(F)cc1 (mixture of isomers) [Example 57, (2RS)—N-(4-{7-[(2S)-1,4-dioxan-2-ylmethoxy]-5-fluoro-3-(pyridin-2-yl)-1H-pyrrolo[3,2-b]pyridin-2-yl}pyridin-2-yl)-4,4-difluoro-2-(4-fluorophenyl)butanamide] | 6.33 nM | 7.89 nM |
| O=C(Nc1cc(-c2[nH]c3ncc(F)nc3c2-c2ccccn2)ccn1)C(CC(F)F)c1ccc(F)cc1 (single isomer, unassigned) [Example 63, (2R or S)-4,4-difluoro-2-(4-fluorophenyl)-N-{4-[2-fluoro-7-(pyridin-2-yl)-5H-pyrrolo[2,3-b]pyrazin-6-yl]pyridin-2-yl}butanamide] | 3.77 nM | 1.48 nM |
| O=C(Nc1cc(-c2[nH]c3cc(Cl)cnc3c2-c2ccccn2)ccn1)C(CC(F)F)c1ccc(F)cc1 (single isomer, unassigned) [Example 89, (−)—N-{4-[6-chloro-3-(pyridin-2-yl)-1H-pyrrolo[3,2-b]pyridin-2-yl]pyridin-2-yl}-4,4-difluoro-2-(4-fluorophenyl)butanamide] | 104 nM | 89 nM |
| O=C(Nc1cc(-c2[nH]c3ccnnc3c2-c2ccccn2)ccn1)C(CC(F)F)c1ccc(F)cc1 (racemic) [Example 65, (2RS)-4,4-difluoro-2-(4-fluorophenyl)-N-{4-[7-(pyridin-2-yl)-5H-pyrrolo[3,2-c]pyridazin-6-yl]pyridin-2-yl}butanamide] | 5.62 nM | 2.75 nM |
| O=C(Nc1cc(-c2[nH]c3ncc(F)nc3c2-c2ccccn2)ccn1)C(CC(F)F)c1ccc(F)cc1 (single isomer, unassigned) [Example 64, (2R or S)-4,4-difluoro-2-(4-fluorophenyl)-N-{4-[2-fluoro-7-(pyridin-2-yl)-5H-pyrrolo[2,3-b]pyrazin-6-yl]pyridin-2-yl}butanamide] | 40.4 nM | 23 nM |
| O=C(Nc1cc(-c2[nH]c3c(OC[C@@H]4COCCO4)cc(F)nc3c2-c2ccccn2)ccn1)C(CC(F)F)c1ccc(F)cc1 (single isomer, unassigned) [Example 58, (2R or S)—N-{4-[7-{[(2S)-1,4-dioxan-2-yl]methoxy}-5-fluoro-3-(pyridin-2-yl)-1H-pyrrolo[3,2-b]pyridin-2-yl]pyridin-2-yl}-4,4-difluoro-2-(4-fluorophenyl)butanamide] | 3.03 nM | 3.56 nM |
| O=C(Nc1cc(-c2[nH]c3c(OCC(F)F)ncnc3c2-c2ccccn2)ccn1)C(CC(F)F)c1ccc(F)cc1 (single isomer, unassigned) [Example 80, (2R or S)—N-{4-[4-(2,2-difluoroethoxy)-7-(pyridin-2-yl)-5H-pyrrolo[3,2-d]pyrimidin-6-yl]pyridin-2-yl}-4,4-difluoro-2-(4-fluorophenyl)butanamide] | 26.4 nM | 16.9 nM |
| O=C(Nc1cc(-c2[nH]c3ccnnc3c2-c2ccccn2)ccn1)C(CC(F)F)c1ccc(F)cc1 (single isomer, unassigned) [Example 67, (2R or S)-4,4-difluoro-2-(4-fluorophenyl)-N-{4-[7-(pyridin-2-yl)-5H-pyrrolo[3,2-c]pyridazin-6-yl]pyridin-2-yl}butanamide] | 29.7 nM | 22 nM |
| O=C(Nc1cc(-c2[nH]c3c(N4CCNCC4)ccnc3c2-c2ccccn2)ccn1)C(CC(F)F)c1ccc(F)cc1 (racemic) [Example 92, (2RS)-4,4-difluoro-2-(4-fluorophenyl)-N-{4-[7-(piperazin-1-yl)-3-(pyridin-2-yl)-1H-pyrrolo[3,2-b]pyridin-2-yl]pyridin-2-yl}butanamide] | 6.27 nM | 2.35 nM |
| Cc1cnc2c(-c3ccccn3)c(-c3ccnc(NC(=O)C(CC(F)F)c4ccc(F)cc4)c3)[nH]c2n1 (stereo not drawn) [Example 85, 4,4-difluoro-2-(4-fluorophenyl)-N-{4-[3-methyl-7-(pyridin-2-yl)-5H-pyrrolo[2,3-b]pyrazin-6-yl]pyridin-2-yl}butanamide] | 7.11 nM | 4.21 nM |
